Consider one compound from patent US10993999B2, “Materials and methods for producing improved lentiviral vector particles” (IMMUNE DESIGN CORP., priority 2012, dated 2021).

Molecules are shown by their SMILES.

The test has as its system Human PBMCs (DCs, B-cells, T-cells). Nature of the test: Transduction specificity in GM-CSF/IL-4 treated human PBMC culture. As to conditions: all cell populations.

For `Cc1ccnc2c1NC(=O)c1cccnc1N2C1CC1` [Nevirapine], the “effect of RT inhibitor on transduction” value was “completely ablated”.
